# Source: patent US7148250B2, “Indoles as NAALADase inhibitors” (Guilford Pharmaceuticals Inc., priority 2001, dated 2006)
# Key:
# BB/W rats = assay: Retinal disorders in diabetic BB/W rats (BM thickness, E/P ratio); format: in vivo, rat; conditions: for BM THICKNESS ± SD (n = 3) / E/P RATIO (n = 8–10): diabetic BB/W rats
# Description: Four (4) groups of rats received daily insulin injections to maintain their glucose levels at about 350 mg/dl. Starting at the onset of hyperglycemia, NAALADase inhibitor 2-(3-sulfanylpropyl)-pentanedioic acid was administered daily for 6 months to one group of BB/W rats at a dose of 10 mg/kg and to a second group of BB/W rats at a dose of 30 mg/kg. A third group of BB/W rats and a fourth group of non-diabetic rats received daily vehicle treatment (50 mM Hepes buffered saline).
# After six (6) months of NAALADase inhibitor or vehicle treatment, the rats were sacrificed and their eyes were removed. From each rat, one eye was processed for elastase digest while the other eye was processed for transmission electron microscopy (TEM) and basement membrane (BM) thickness.
# Retinal digests were prepared using elastase on retinas as described in Layer, N., Invest Ophthalmol Vis Sci (1993) 34:2097. Eyes were removed from recently killed BB/W rats (n=25) and age-matched […] controls (n=10). The retinas (n=35) were fixed at room temperature by immersing the whole eye (slit at limbus) in 4% (w/v) paraformaldehyde in 50 mmol/L Na—K phosphate buffer with 8% sucrose. The fixed retinas were rinsed in deionized water and were incubated for 3 minutes in a 37° C. agitating water bath in 40 units/mL elastase in Na—K phosphate buffer with 150 mmol/L NaCl and 5 mmol/L ethylenediamine tetraacetic acid (EDTA), pH 6.5. The tissues were washed overnight in 100 mmol/L Tris-HCL (pH 8.5) and then transferred to deionized water for removal of the loosened vitreous and digested neural elements by gentle agitation using the sides of closed forceps and the sides and ends of very fine brushes. After all loose tissues were removed, the retinas were incubated once more in fresh enzyme for 3 minutes and then subjected to a second overnight wash at room temperature in Tns-HCl buffer. On the third day, the retinas were again transferred to deionized water for additional removal of digested neural elements. The vascular network that was completely free of nonvascular elements was mounted flat by flotation in Ca^2+ and Mg^2+ free Dulbecco's PBS on siliconized slides (#S1308, Oncor, Gaithersburg, Md.). After air drying in a dust free environment, the mounts of the retinal microvasculature were stained using periodic acid Schiff reaction and hematoxylin counterstaining, as described in Luna, L., ed. Manual of Histologic Staining Methods of the Armed Forces Institute of Pathology (1968) McGraw-Hill, New York, N.Y. The preparations were then examined by light microscopy and photographed.
# The stained and intact retinal whole mounts were coded and subsequent counting was done masked, as described in Cuthbertson, R., Invest Ophthalmol Vis Sci. (1986) 27:1659–1664).
# Ten fields at ×100 magnification were counted for endothelial and pericyte cells using previously described morphologic criteria (see Kuwabara, T., Arch Ophthalmol. (1960) 64:904–911). In every sample, at least 200 cells were counted from the mid zone of the retina. Mean values for endothelial cell/pericyte (E/P) ratios were initially calculated in 3 retinas from each of the four (4) groups of rats.
# Each eye was fixed in 4% glutaraldehyde and dissected free of sclera and choroids, then trimmed and postfixed in 1% osmium tetroxide. After dehydration and embedding, thin sections were stained with uranyl acetate and lead citrate. Initially, BM thickness of retinal capillaries from 3 non-diabetic rats receiving vehicle, 3 diabetic animals receiving 10 mg/kg 2-(3-sulfanylpropyl)-pentanedioic acid, and 3 diabetic rats receiving 30 mg/kg 2-(3-sulfanylpropyl)-pentanedioic acid were compared with 3 diabetic rats receiving a vehicle. At least 10 capillaries per eye from the inner nuclear and plexiform layers were photographed at a magnification of 10,000×. Exact magnification was determined for each set of negatives with a 28,800 line/inch calibration grid. Negatives were enlarged 3×. […]
# [1] = system: Brown Norway rats with unilateral elevation of intraocular pressure; assay: Experimental rat glaucoma (IOP elevation), optic nerve fiber counting; format: in vivo; conditions: 10 mg/kg i.p. daily
# Description: All experiments complied with the Association for Research in Vision and Ophthalmology Statement for the Use of Animals in Ophthalmic and Vision Research. 82 male Brown Norway rats (Rattus norvegicus), each weighing approximately 250 gm, were treated using procedures approved by the Animal Care Committee of the Johns Hopkins University School of Medicine. The rats were housed with a 12 hour light/12 hour dark cycle and fed ad libitum.
# EXPERIMENTAL GLAUCOMA: Unilateral elevation of intraocular pressure (“IOP”) was produced in 56 rats by microinjection of hypertonic saline into episcleral veins, following procedures described in Morrison, J. et al., IOVS (March 1998) 39:526–531. Beginning on the day of IOP elevation, the rats were treated daily with intraperitoneal injections of either a vehicle (23 rats with 50 mM HEPES-buffered saline) or a NAALADase inhibitor (11 rats with 10 mg/kg of Compound A and 22 rats with 10 mg/kg of Compound B). 11 saline treated rats, 11 Compound A treated rats and 11 Compound B treated rats were sacrificed at 8 weeks, and the remaining rats at 12 weeks, after initial IOP elevation.
# OPTIC NERVE COUNTING: The rats were sacrificed by exsanguination under deep pentobarbital anesthesia. They were perfused through the heart with 2% paraformaldehyde/2% glutaraldehyde in 0.1 M phosphate buffer, pH 7.2, and the eyes with attached optic nerves were removed. A cross-section of the optic nerve from both experimental (glaucoma or transection) and control eyes was removed 1.5 mm posterior to the globe, 1 mm in thickness, and post-fixed in 2% osmium tetroxide in buffer. These were processed into epoxy resin, sectioned at 1 micron and stained with toluidine blue.
# The area of the optic nerve cross-section was measured by outlining its outer border at 10× magnification on an image analysis system (Universal Imaging Corp., Westchester, Pa.) with Synsys digital camera and Metamorph software. Three area measurements were taken and the mean value was determined. To measure the density and fiber diameter distributions, images were captured with a 100× phase contrast objective from 10 different areas of each nerve. These were edited to eliminate non-neural objects and the size of each axon internal to the myelin sheath (its minimum diameter) and the density of axons/square mm were calculated for each image and nerve. The mean density was multiplied by total nerve area to yield fiber number for each nerve. The total fiber number in glaucoma or transection nerves was compared to the normal, fellow eye of each rat to yield a percent loss value. The number of axons counted among the 10 images was an approximately 20% sample of the 80–90,000 axons in normal rat nerves. The person measuring axon number was masked to the protocol conducted on the nerves.
# [2] = 10 mg/kg daily for 6 months, 10 mg/kg
# [3] = 10 mg/kg daily for 6 months, listed as NAALADASE INHIBITOR, 10 mg/kg
# [4] = 30 mg/kg daily for 6 months, 30 mg/kg
# [5] = 30 mg/kg daily for 6 months, listed as NAAALADASE INHIBITOR, 30 mg/kg
# [6] = high dose (30 mg/kg), six months
# [7] = low dose (10 mg/kg), six months
compound,measurement,setting,value
"O=C(O)CCC(CCCS)C(=O)O (stereo not shown) [Compound B, 2-(3-sulfanylpropyl)-pentanedioic acid]",BM THICKNESS ± SD (n = 3),BB/W rats; [2],82.3±4.07 nm
same,E/P RATIO (n = 8–10),BB/W rats; [2],2.4±0.5
same,BM THICKNESS ± SD (n = 3),BB/W rats; [3],82.3 ± 4.07 nm
same,E/P RATIO (n = 8–10),BB/W rats; [3],2.4 ± 0.5
same,BM THICKNESS ± SD (n = 3),BB/W rats; [4],71.7±4.07 nm
same,E/P RATIO (n = 8–10),BB/W rats; [4],1.9±0.4
same,BM THICKNESS ± SD (n = 3),BB/W rats; [5],71.7 ± 4.07 nm
same,E/P RATIO (n = 8–10),BB/W rats; [5],1.9 ± 0.4
same,reduction in BM thickness versus diabetic vehicle,BB/W rats; [6],29.0%
same,reduction of E/P ratios versus diabetic vehicle,BB/W rats; [6],37%
same,decrease in BM thickness versus diabetic vehicle,BB/W rats; [7],18.5%
same,reduction of E/P ratios versus diabetic vehicle,BB/W rats; [7],20%
same,FIBER NUMBER ± SEM,[1]; 8 week group,80785 ± 2121
same,PERCENT DIFFERENCE ± SEM in fiber number between glaucoma and normal eye,"[1]; 8 week group, positive = fewer fibers in glaucoma eye",−0.82 ± 2.97%
same,FIBER NUMBER,[1]; 12 week group,90504 ± 1718
same,PERCENT DIFFERENCE in fiber number between glaucoma and normal eye,"[1]; 12 week group, positive = fewer fibers in glaucoma eye",−3.21 ± 2.86%
